According to patent US20250313563A1, “GLYCOGEN SYNTHASE KINASE 3 INHIBITORS AND USES THEREOF” (The Broad Institute, Inc., priority 2022, published 2025):
Where two headings read alike, the source gives them in different places.

Tests used:
[1] = target: GSK3α (GST-full length GSK3α) (Homo sapiens (Human), UniProt P49840); assay: GSK3α TR-FRET kinase assay; type: biochemical
Method: (§1) TR-FRET Assay: The assay was performed in a white, 384 well, low volume, flat bottom plate (Grenier). After a 30 minute preincubation in assay buffer with the indicated concentration of compound, the kinase activity was initiated by the addition of the substrates. 1 nM GSK3α (GST-full length GSK3α [SignalChem G08-10G]) or 1 nM GSK3b (GST-full length GSK3b: [SignalChem G08-9G]) were then incubated at ambient temperature for 100 minutes in 10 μL of 50 mM Tris, pH 7.5, 20 mM MgCl2, 0.05 mM DTT, 100 μg/mL BSA and 1% DMSO, with 200 nM biotinylated peptide substrate (biotinylated and S645 phosphorylated glycogen synthase 631-650) and either 4 μM ATP (GSK3α, Table 16) or 2 μM ATP (GSK3b, Table 16) or 1 mM ATP (Table 17). The kinase activity was quenched with 2 μL of 250 mM EDTA. A 10 μL volume of 40 nM Strepavidin-d2, 2 nM Tb^2+-pSer641 antibody in TR-FRET Detection Buffer (Invitrogen) was then added. After 60 min at room temperature the plate was read on Envision plate reader using Ex: 340 nm, Em: 615 nm and […]. The normalized 665/615 Signal ratio versus log compound concentration was analyzed by XLFIT to yield IC50 values.

[2] = target: GSK3b (GST-full length GSK3b) (Homo sapiens (Human), UniProt P49841); assay: GSK3b TR-FRET kinase assay; type: biochemical
Method: as §1

[3] = 1 nM GSK3α, 4 μM ATP, 30 minute preincubation, geometric mean, read-out: GSK3-A TR-FRET BIOCHEMICAL (TR-FRET), GMean, IC50
[4] = 1 nM GSK3b, 2 μM ATP, 30 minute preincubation, geometric mean, read-out: GSK3-B TR-FRET BIOCHEMICAL (TR-FRET), GMean, IC50
[5] = read-out: GSK3-A (TR-FRET 1 mM ATP), GMean, IC50, 1 mM ATP, geometric mean
[6] = read-out: GSK3-B (TR-FRET 1 mM ATP), GMean, IC50, 1 mM ATP, geometric mean

Sequence of GSK3α (GST-full length GSK3α) (P49840 whole entry): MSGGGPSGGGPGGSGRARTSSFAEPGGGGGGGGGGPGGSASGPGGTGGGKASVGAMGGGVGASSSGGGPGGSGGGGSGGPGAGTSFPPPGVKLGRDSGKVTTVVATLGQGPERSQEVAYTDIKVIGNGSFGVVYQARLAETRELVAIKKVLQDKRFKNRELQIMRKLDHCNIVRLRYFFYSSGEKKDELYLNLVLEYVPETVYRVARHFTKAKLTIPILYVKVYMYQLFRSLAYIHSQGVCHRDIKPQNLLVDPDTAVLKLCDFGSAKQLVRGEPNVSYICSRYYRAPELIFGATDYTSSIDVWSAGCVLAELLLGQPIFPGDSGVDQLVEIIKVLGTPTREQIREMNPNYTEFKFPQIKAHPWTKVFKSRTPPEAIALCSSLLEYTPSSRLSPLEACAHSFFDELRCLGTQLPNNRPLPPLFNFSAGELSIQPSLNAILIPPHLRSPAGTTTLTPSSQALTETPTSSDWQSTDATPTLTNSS
Sequence of GSK3b (GST-full length GSK3b) (P49841 whole entry): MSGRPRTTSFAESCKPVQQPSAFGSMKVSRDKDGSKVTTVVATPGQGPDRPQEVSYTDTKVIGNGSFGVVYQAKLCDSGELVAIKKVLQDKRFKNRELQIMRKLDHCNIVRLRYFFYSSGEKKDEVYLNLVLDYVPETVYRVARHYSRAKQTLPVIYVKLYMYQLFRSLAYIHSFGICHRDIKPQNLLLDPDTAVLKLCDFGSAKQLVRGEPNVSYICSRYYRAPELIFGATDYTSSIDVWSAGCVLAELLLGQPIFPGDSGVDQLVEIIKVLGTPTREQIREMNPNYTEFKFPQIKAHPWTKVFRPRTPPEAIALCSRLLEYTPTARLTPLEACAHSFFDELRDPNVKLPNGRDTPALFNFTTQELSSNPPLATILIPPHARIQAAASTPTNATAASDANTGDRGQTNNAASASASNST

| SMILES | IC50 [1, 3] | IC50 [2, 4] | IC50 [1, 5] | IC50 [2, 6] | IC50 ([1]; 1 nM GSK3α, 4 μM ATP, 30 minute preincubation, Table 16, read-out: GSK3-A TR-FRET BIOCHEMICAL (TR-FRET)) | IC50 ([2]; 1 nM GSK3b, 2 μM ATP, 30 minute preincubation, Table 16, read-out: GSK3-B TR-FRET BIOCHEMICAL (TR-FRET)) |
| --- | --- | --- | --- | --- | --- | --- |
| C[C@H]1CC(=O)C2=C(C1)Nc1n[nH]cc1[C@@]2(C)c1ccccc1 [Compound 789334] | 100 to 1000 nM | 1000 to 5000 nM | – | – | – | – |
| CC1(C)CC(=O)C2=C(C1)Nc1n[nH]cc1C2(C)c1cc(Cl)cc(Cl)c1 (stereo not drawn) [Compound 789337] | 100 to 1000 nM | 1000 to 5000 nM | – | – | – | – |
| CC[C@@]1(c2ccc(C)cc2)C2=C(CC(C)(C)CC2=O)Nc2n[nH]cc21 [Compound 789457] | 100 to 1000 nM | 1000 to 5000 nM | – | – | – | – |
| CC[C@]1(c2ccc(C)cc2)C2=C(CC(C)(C)CC2=O)Nc2n[nH]cc21 [Compound 789458] | > 5000 nM | > 5000 nM | – | – | – | – |
| CCC1(c2ccccc2)C2=C(CC(C)(C)CC2=O)Nc2n[nH]c(Br)c21 (stereo not drawn) [Compound 789459] | ≤ 100 nM | ≤ 100 nM | – | – | – | – |
| CC1(c2ccccc2)C2=C(CC3(CCCC3)CC2=O)Nc2n[nH]cc21 (stereo not drawn) [Compound 789460] | 100 to 1000 nM | 100 to 1000 nM | – | – | – | – |
| CC1(C)CC(=O)C2=C(C1)Nc1n[nH]cc1C2(c1ccccc1)c1ccccc1 [Compound 789461] | 1000 to 5000 nM | > 5000 nM | – | – | – | – |
| CCC1(c2ccccc2)C2=C(CCCC2=O)Nc2n[nH]cc21 (stereo not drawn) [Compound 789497] | 1000 to 5000 nM | > 5000 nM | – | – | – | – |
| CC1(C)CC(=O)C2=C(C1)Nc1n[nH]cc1C2(C)c1cccc(-c2ccccc2)c1 (stereo not drawn) [Compound 789513] | 100 to 1000 nM | 100 to 1000 nM | – | – | – | – |
| CCC1(c2cccc(-c3ccccc3)c2)C2=C(CC(C)(C)CC2=O)Nc2n[nH]cc21 (stereo not drawn) [Compound 789514] | 100 to 1000 nM | 100 to 1000 nM | – | – | – | – |
| CCC1(c2cccc(C)c2)C2=C(CC(C)(C)CC2=O)Nc2n[nH]cc21 (stereo not drawn) [Compound 789560] | – | 100 to 1000 nM | 1000 to 5000 nM | > 5000 nM | – | – |
| CC[C@]1(c2cccc(C)c2)C2=C(CC(C)(C)CC2=O)Nc2n[nH]cc21 [Compound 789561] | 1000 to 5000 nM | > 5000 nM | – | – | – | – |
| CC[C@@]1(c2ccccc2)C2=C(CC3(CCCC3)CC2=O)Nc2n[nH]cc21 [Compound 789562] | ≤ 100 nM | 100 to 1000 nM | – | – | – | – |
| CC[C@]1(c2ccccc2)C2=C(CC3(CCCC3)CC2=O)Nc2n[nH]cc21 [Compound 789563] | > 5000 nM | > 5000 nM | – | – | – | – |
| CCC1(c2cccc(Cl)c2)C2=C(CC(C)(C)CC2=O)Nc2n[nH]c(Br)c21 (stereo not drawn) [Compound 789564] | ≤ 100 nM | ≤ 100 nM | – | – | – | – |
| CCC1(c2cccc(Cl)c2)C2=C(CC(C)(C)CC2=O)Nc2n[nH]c(C)c21 (stereo not drawn) [Compound 790611] | > 5000 nM | > 5000 nM | – | – | – | – |
| CC[C@@]1(c2ccccc2)C2=C(CC3(CC3)CC2=O)Nc2n[nH]cc21 [Compound 790615] | ≤ 100 nM | 100 to 1000 nM | – | – | – | – |
| CC[C@]1(c2ccccc2)C2=C(CC3(CC3)CC2=O)Nc2n[nH]cc21 [Compound 790616] | > 5000 nM | > 5000 nM | – | – | – | – |
| CCC1(c2cccc(C(F)(F)F)c2)C2=C(CC3(CCCC3)CC2=O)Nc2n[nH]cc21 (stereo not drawn) [Compound 790617] | ≤ 100 nM | ≤ 100 nM | – | – | – | – |
| CCC1(c2ccn(C)n2)C2=C(CC(C)(C)CC2=O)Nc2n[nH]cc21 (stereo not drawn) [Compound 790619] | 1000 to 5000 nM | > 5000 nM | – | – | – | – |
| CC1(C)CC(=O)C2=C(C1)Nc1n[nH]c(C(F)(F)F)c1C21CCCOc2ccccc21 (stereo not drawn) [Compound 790632] | > 5000 nM | > 5000 nM | – | – | – | – |
| CC1(C)CC(=O)C2=C(C1)Nc1n[nH]cc1C21CCCC1 [Compound 790666] | – | – | – | – | ≤ 100 nM | ≤ 100 nM |
| CC1(C)CC(=O)C2=C(C1)Nc1n[nH]cc1C2(C)c1cccc(-c2ccncc2)c1 (stereo not drawn) [Compound 790730] | ≤ 100 nM | 100 to 1000 nM | – | – | – | – |
| CCC1(c2cccc(Br)c2)C2=C(CC(C)(C)CC2=O)Nc2n[nH]cc21 (stereo not drawn) [Compound 790733] | ≤ 100 nM | ≤ 100 nM | 100 to 1000 nM | 1000 to 5000 nM | – | – |
